Data published in patent publication US12195482B1 (Arcus Biosciences, Inc., priority 2022, dated 2025).

Assays:
recombinant human MER = molecular target: T1, recombinant human MER (Homo sapiens, UniProt Q12866); test: Biochemical potency, HTRF KinEASE-TK kinase assay; details: 1 nM MER, 700 μM ATP
T1 construct: purchased Invitrogen
T1 sequence (Q12866 21-999): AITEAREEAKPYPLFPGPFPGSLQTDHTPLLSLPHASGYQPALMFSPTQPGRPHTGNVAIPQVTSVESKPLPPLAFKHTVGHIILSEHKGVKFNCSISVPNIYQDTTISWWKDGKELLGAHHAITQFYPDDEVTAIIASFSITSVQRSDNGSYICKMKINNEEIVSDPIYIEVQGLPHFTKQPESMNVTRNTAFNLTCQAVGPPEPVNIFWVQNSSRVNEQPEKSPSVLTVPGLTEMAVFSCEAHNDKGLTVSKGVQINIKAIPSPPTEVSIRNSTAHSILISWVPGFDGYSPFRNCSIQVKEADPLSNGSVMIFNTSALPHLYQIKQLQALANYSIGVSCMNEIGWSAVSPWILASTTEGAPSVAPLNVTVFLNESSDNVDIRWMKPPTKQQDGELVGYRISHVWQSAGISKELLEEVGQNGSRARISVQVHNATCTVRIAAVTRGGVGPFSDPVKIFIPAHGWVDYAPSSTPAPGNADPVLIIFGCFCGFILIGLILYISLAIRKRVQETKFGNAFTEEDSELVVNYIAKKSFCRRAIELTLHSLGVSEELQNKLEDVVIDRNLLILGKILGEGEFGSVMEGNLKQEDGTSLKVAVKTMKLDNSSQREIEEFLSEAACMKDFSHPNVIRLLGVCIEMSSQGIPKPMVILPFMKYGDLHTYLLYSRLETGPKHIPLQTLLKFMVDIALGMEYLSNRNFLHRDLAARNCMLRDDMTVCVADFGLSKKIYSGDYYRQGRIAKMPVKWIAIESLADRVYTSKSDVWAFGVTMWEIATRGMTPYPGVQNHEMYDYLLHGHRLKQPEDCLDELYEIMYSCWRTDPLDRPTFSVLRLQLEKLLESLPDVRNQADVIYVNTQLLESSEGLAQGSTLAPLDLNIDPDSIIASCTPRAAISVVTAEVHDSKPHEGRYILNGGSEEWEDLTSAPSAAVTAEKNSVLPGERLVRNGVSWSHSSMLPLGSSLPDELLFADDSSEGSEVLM
In short: (§1)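 Enzyme (AXL 5 nM; TYRO3 or MER 1 nM final) was preincubated with compound for 1 h at RT, then reacted for 2 h at RT with 800 nM biotinylated TK substrate and 700 µM ATP in HEPES pH 7.4, MgCl2, DTT, BSA, 1% DMSO. Percent activity came from the HTRF 665/620 ratio.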

recombinant human TYRO3 = molecular target: T2, recombinant human TYRO3 (Homo sapiens, UniProt Q06418); test: Biochemical potency, HTRF KinEASE-TK kinase assay; details: 1 nM TYRO3, 700 μM ATP
T2 construct: purchased Invitrogen
T2 sequence (Q06418 41-890): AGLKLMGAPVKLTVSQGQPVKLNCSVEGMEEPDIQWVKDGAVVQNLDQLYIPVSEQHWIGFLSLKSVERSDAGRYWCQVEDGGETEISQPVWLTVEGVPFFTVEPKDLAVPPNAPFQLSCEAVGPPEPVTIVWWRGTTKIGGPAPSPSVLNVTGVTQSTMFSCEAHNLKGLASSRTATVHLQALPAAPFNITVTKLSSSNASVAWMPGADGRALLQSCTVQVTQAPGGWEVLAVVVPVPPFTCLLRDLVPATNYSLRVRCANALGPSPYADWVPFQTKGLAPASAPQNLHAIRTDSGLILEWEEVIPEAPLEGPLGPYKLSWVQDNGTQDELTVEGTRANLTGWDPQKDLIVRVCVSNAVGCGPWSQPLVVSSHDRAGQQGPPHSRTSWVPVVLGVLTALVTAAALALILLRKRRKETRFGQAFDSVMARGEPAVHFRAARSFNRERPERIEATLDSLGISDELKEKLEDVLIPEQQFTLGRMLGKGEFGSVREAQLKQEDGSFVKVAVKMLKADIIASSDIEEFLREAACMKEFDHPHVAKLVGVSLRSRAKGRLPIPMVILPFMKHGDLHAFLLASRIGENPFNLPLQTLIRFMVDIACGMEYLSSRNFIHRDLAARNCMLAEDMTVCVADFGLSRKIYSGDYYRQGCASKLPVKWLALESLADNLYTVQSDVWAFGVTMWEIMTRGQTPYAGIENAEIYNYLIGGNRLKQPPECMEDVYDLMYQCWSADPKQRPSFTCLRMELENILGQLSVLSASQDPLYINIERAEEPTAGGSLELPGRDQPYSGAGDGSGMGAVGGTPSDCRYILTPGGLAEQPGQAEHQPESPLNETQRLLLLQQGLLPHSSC
In short: as §1

Structure (SMILES)	IC50 (recombinant human MER) [nM]	IC50 (recombinant human TYRO3) [nM]
Cc1ncc(C)c(-c2ccc(-c3n[nH]c4ncc(-c5ccc6c(c5)CC[C@@H](N5C7COCC5C7)CC6)cc34)cc2)n1 [Example 122, 6-[(7S)-2-{3-[4-(2,5-Dimethylpyrimidin-4-yl)phenyl]-1H-pyrazolo[3,4-b]pyridin-5-yl}-6,7,8,9-tetrahydro-5H-benzo[7]annulen-7-yl]-3-oxa-6-azabicyclo[3.1.1]heptane]	100 to 1000	< 100
Cc1ncc(C)c(-c2ccc(-c3c[nH]c4ncc(-c5ccc6c(c5)CC[C@@H](N5C7COCC5C7)CC6)cc34)cc2)n1 [Example 123, 6-[(7S)-2-{3-[4-(2,5-Dimethylpyrimidin-4-yl)phenyl]-1H-pyrrolo[2,3-b]pyridin-5-yl}-6,7,8,9-tetrahydro-5H-benzo[7]annulen-7-yl]-3-oxa-6-azabicyclo[3.1.1]heptane]	< 100	< 100
C[C@@H]1COC(=O)N1c1cccnc1-c1ccc(-c2n[nH]c3ncc(-c4ccc5c(c4)CC[C@@H](N4C6COCC4C6)CC5)cc23)cc1 [Example 124, (4R)-4-Methyl-3-[2-(4-{5-[(7S)-7-{3-oxa-6-azabicyclo[3.1.1]heptan-6-yl}-6,7,8,9-tetrahydro-5H-benzo[7]annulen-2-yl]-1H-pyrazolo[3,4-b]pyridin-3-yl}phenyl)pyridin-3-yl]-1,3-oxazolidin-2-one]	< 100	< 100
C[C@H]1COC(=O)N1c1cccnc1-c1ccc(-c2n[nH]c3ncc(-c4ccc5c(c4)CC[C@@H](N4C6COCC4C6)CC5)cc23)cc1 [Example 125, (4S)-4-Methyl-3-[2-(4-{5-[(7S)-7-{3-oxa-6-azabicyclo[3.1.1]heptan-6-yl}-6,7,8,9-tetrahydro-5H-benzo[7]annulen-2-yl]-1H-pyrazolo[3,4-b]pyridin-3-yl}phenyl)pyridin-3-yl]-1,3-oxazolidin-2-one]	< 100	< 100
O=C1CCCCN1c1cccnc1-c1ccc(-c2n[nH]c3ncc(-c4ccc5c(c4)CC[C@@H](N4C6COCC4C6)CC5)cc23)cc1 [Example 127, 1-[2-(4-{5-[(7S)-7-{3-Oxa-6-azabicyclo[3.1.1]heptan-6-yl}-6,7,8,9-tetrahydro-5H-benzo[7]annulen-2-yl]-1H-pyrazolo[3,4-b]pyridin-3-yl}phenyl)pyridin-3-yl]piperidin-2-one]	100 to 1000	< 100
CN(C(=O)C1CC1)c1cccnc1-c1ccc(-c2n[nH]c3ncc(-c4ccc5c(c4)CC[C@@H](N4C6COCC4C6)CC5)cc23)cc1 [Example 128, N-Methyl-N-[2-(4-{5-[(7S)-7-{3-oxa-6-azabicyclo[3.1.1]heptan-6-yl}-6,7,8,9-tetrahydro-5H-benzo[7]annulen-2-yl]-1H-pyrazolo[3,4-b]pyridin-3-yl}phenyl)pyridin-3-yl]cyclopropanecarboxamide]	100 to 1000	< 100
Cc1cccnc1-c1ccc(-c2n[nH]c3ncc(-c4ccc5c(c4)CC[C@@H](N[C@H]4CCCOC4)CC5)cc23)cc1 [Example 129, (3S)—N-[(7S)-2-{3-[4-(3-Methylpyridin-2-yl)phenyl]-1H-pyrazolo[3,4-b]pyridin-5-yl}-6,7,8,9-tetrahydro-5H-benzo[7]annulen-7-yl]oxan-3-amine]	< 100	< 100
Cc1cccnc1-c1ccc(-c2n[nH]c3ncc(-c4ccc5c(c4)CC[C@@H](N4C[C@@H]6C[C@H]4CO6)CC5)cc23)cc1 [Example 130, (1S,4S)-5-[(7S)-2-{3-[4-(3-Methylpyridin-2-yl)phenyl]-1H-pyrazolo[3,4-b]pyridin-5-yl}-6,7,8,9-tetrahydro-5H-benzo[7]annulen-7-yl]-2-oxa-5-azabicyclo[2.2.1]heptane]	< 100	< 100

Other lines, results leading:

IC50 (recombinant human MER) [nM]	IC50 (recombinant human TYRO3) [nM]	Structure (SMILES)
< 100	< 100	CO[C@H]1C[C@@H](N[C@H]2CCc3ccc(-c4cnc5[nH]nc(-c6ccc(-c7ncccc7C)cc6)c5c4)cc3CC2)C1 [Example 131, (7S)-2-{3-[4-(3-Methylpyridin-2-yl)phenyl]-1H-pyrazolo[3,4-b]pyridin-5-yl}-N-[cis-3-methoxycyclobutyl]-6,7,8,9-tetrahydro-5H-benzo[7]annulen-7-amine]
< 100	< 100	COC[C@H]1CCN([C@H]2CCc3ccc(-c4cnc5[nH]nc(-c6ccc(-c7ncccc7C)cc6)c5c4)cc3CC2)C1 [Example 132, 2-(4-{5-[(7S)-7-[(3S)-3-(Methoxymethyl)pyrrolidin-1-yl]-6,7,8,9-tetrahydro-5H-benzo[7]annulen-2-yl]-1H-pyrazolo[3,4-b]pyridin-3-yl}phenyl)-3-methylpyridine]
100 to 1000	100 to 1000	c1ccc(-c2ccc(-c3n[nH]c4ncc(-c5ccc6c(c5)CC[C@@H](N5C7COCC5C7)CC6)cc34)cc2)nc1 [Example 154, 6-[(7S)-2-{3-[4-(Pyridin-2-yl)phenyl]-2H-pyrazolo[3,4-b]pyridin-5-yl}-6,7,8,9-tetrahydro-5H-benzo[7]annulen-7-yl]-3-oxa-6-azabicyclo[3.1.1]heptane]
> 1000	100 to 1000	c1ccc(-c2ccc(-c3c[nH]c4ncc(-c5ccc6c(c5)CC[C@@H](N5C7COCC5C7)CC6)cc34)cc2)nc1 [Example 155, 6-[(7S)-2-{3-[4-(Pyridin-2-yl)phenyl]-1H-pyrrolo[2,3-b]pyridin-5-yl}-6,7,8,9-tetrahydro-5H-benzo[7]annulen-7-yl]-3-oxa-6-azabicyclo[3.1.1]heptane]
100 to 1000	100 to 1000	C[C@@H]1CCCN1[C@@]1(C)CCc2ccc(-c3cnc4[nH]cc(-c5ccc(-c6ccccn6)cc5)c4c3)cc2CC1 [Example 156, 2-(4-{5-[(7S)-7-Methyl-7-[(2R)-2-methylpyrrolidin-1-yl]-6,7,8,9-tetrahydro-5H-benzo[7]annulen-2-yl]-1H-pyrrolo[2,3-b]pyridin-3-yl}phenyl)pyridine]
> 1000	> 1000	c1cncc(-c2ccc(-c3c[nH]c4ncc(-c5ccc6c(c5)CC[C@@H](N5C7COCC5C7)CC6)cc34)cc2)c1 [Example 158, 6-[(7S)-2-{3-[4-(Pyridin-3-yl)phenyl]-1H-pyrrolo[2,3-b]pyridin-5-yl}-6,7,8,9-tetrahydro-5H-benzo[7]annulen-7-yl]-3-oxa-6-azabicyclo[3.1.1]heptane]
100 to 1000	100 to 1000	Cc1cc(-c2n[nH]c3ncc(-c4ccc5c(c4)CC[C@@H](N4C6COCC4C6)CC5)cc23)ccc1-c1ccccn1 [Example 159, 6-[(7S)-2-{3-[3-Methyl-4-(pyridin-2-yl)phenyl]-2H-pyrazolo[3,4-b]pyridin-5-yl}-6,7,8,9-tetrahydro-5H-benzo[7]annulen-7-yl]-3-oxa-6-azabicyclo[3.1.1]heptane]
< 100	< 100	Cc1cccnc1-c1ccc(-c2n[nH]c3ncc(-c4ccc5c(c4)CC[C@@](C)(N4CCC[C@H]4C)CC5)cc23)cc1 [Example 163, 3-Methyl-2-(4-{5-[(7S)-7-methyl-7-[(2R)-2-methylpyrrolidin-1-yl]-6,7,8,9-tetrahydro-5H-benzo[7]annulen-2-yl]-2H-pyrazolo[3,4-b]pyridin-3-yl}phenyl)pyridine]
